Experimental data from ChEMBL document CHEMBL1150483, “4-oxygenated retinoids: unexpected chemopreventive potential for analogues originally synthesized as affinity labels” (1992).

Key:
Mus musculus [1] = species on record: Mus musculus; experiment: Ability to inhibit tumor promoter-induced ornithine decarboxylase activity in mouse skin using 1.7 nM of protein; type: functional
Mus musculus [2] = species on record: Mus musculus; experiment: Ability to inhibit tumor promoter-induced ornithine decarboxylase activity in mouse skin using 17 nM of protein; type: functional

| SMILES | ODC Activity (Mus musculus [1]) | ODC Activity (Mus musculus [2]) |
| --- | --- | --- |
| C=CC(=O)OC1CCC(C)(C)C(/C=C/C(C)=C/C=C/C(C)=C/C(=O)O)=C1C (stereo unspecified) | 3.5 (nM of CO2) 30min-1 (mg of protein)-1 | 2.4 (nM of CO2) 30min-1 (mg of protein)-1 |
| CC1=C(/C=C/C(C)=C/C=C/C(C)=C/C(=O)O)C(C)(C)CCC1OC(=O)CBr (stereo unspecified) | 2.3 (nM of CO2) 30min-1 (mg of protein)-1 | 2.5 (nM of CO2) 30min-1 (mg of protein)-1 |
| CC1=C(/C=C/C(C)=C/C=C/C(C)=C/C(=O)O)C(C)(C)CCC1 [TRETINOIN] | 2 (nM of CO2) 30min-1 (mg of protein)-1 | 1.9 (nM of CO2) 30min-1 (mg of protein)-1 |
